This assay has as its system tetrabenazine-induced sedation and depression in mice. Description: Antagonism of tetrabenazine-induced depression in mice orally at 1 hour post-drug. In kind it is in vivo, Carworth CF1 S female mice. The following applies: Mus musculus, oral, 1 hour post-drug (30 minutes after tetrabenazine 32 mg/kg intraperitoneally). From the text: A standard procedure for detecting and comparing the antidepressant activity of compounds in this series for which there is good correlation with human efficacy is the prevention of tetrabenazine-induced sedation and depression in mice. (Everett, "The Dopa Response Potentiation Test and Its Use in Screening for Antidepressant Drugs", pp. 164-167 in "Antidepressant Drugs" [Proceedings of the First International Symposium], S. Garattini and M. N. G. Dukes, eds., 1967.). Groups of 10 Carworth CF1 S female mice, 18-21 g. each, were fasted 1.5 hours and were intubated with antagonist compounds at oral doses of 0, 5, 25, and 125 mg/kg or 0, 1, 3, 9, 27, and 81 mg/kg in 0.20 ml. of 1% Methocel (methylcellulose). The mice were challenged 30 minutes later with tetrabenazine (as the methane-sulfonate), 32 mg/kg intraperitoneally (dissolved in 0.20 ml. 0.05M KCl at pH 2.0). One hour after antagonist (30 minutes after tetrabenazine), the mice were examined for signs of exploratory activity and ptosis (eyelid closure). Normal exploratory activity (relief from sedation) was recorded when a mouse lifted by the tail from a group of 10 in a testing box and placed on a stainless steel testing box lid (12.5 × 8 inches with 0.33 inch mesh) either turned its head horizontally 30° in both directions or moved to the edge of the screen within 10 seconds after being placed on the screen. Relief from ptosis was recorded when exactly 2 seconds after placing the mouse facing the observer, lid closure was less than 50% in both eyes. The following table gives results. |ANTAGONISM OF TETRABENAZINE-INDUCED |DEPRESSION IN MICE ORALLY AT 1 HOUR |POST-DRUG

[1] abbreviates: lid closure less than 50% in both eyes, read-out: ED50 for prevention of ptosis.
The mark [2] stands for this setting: relief from sedation (exploratory activity), read-out: ED50 for prevention of exploratory loss.

Where two headings read alike, the source gives them in different places.

For `CC1NCCC2c3ccccc3N(c3ccccc3)C12` (stereo not drawn) [Ig], the ED50 (as a rule, the dose that gives a 50% effect, or the effect in half of the subjects) by setting is: under setting [1], 25 mg/kg; under setting [2], 31 mg/kg.
Taken in the same sequence, the figures for `CCC1C2C(CCN1CC)c1ccccc1N2c1ccccc1` (stereo not drawn) [If] were 27 mg/kg and 38 mg/kg.
The like results for `CC1C2C(CCN1C)c1ccccc1N2c1ccccc1` (stereo not drawn) [Ib] were, in that order, 16 mg/kg and 38 mg/kg.
Taken in the same sequence, the figures for `CN(C)CCC=C1c2ccccc2CCc2ccccc21` [Amitriptyline, amitriptyline, reference compound] were 1.7 mg/kg and 4.7 mg/kg.
As to `CCCN1CCC2c3ccccc3N(c3ccccc3)C2C1C` (stereo not drawn) [Ic], the ED50 under setting [1] is 14 mg/kg and the ED50 under setting [2] worked out at 38 mg/kg.
Taken in the same sequence, the figures for `CCC1C2C(CCN1C)c1ccccc1N2c1ccccc1` (stereo not drawn) [Ie] were 9.1 mg/kg and 11.2 mg/kg.
Taken in the same sequence, the figures for `CC(C)N1CCC2c3ccccc3N(c3ccccc3)C2C1C` (stereo not drawn) [Id] were 11.2 mg/kg and 19 mg/kg.
Taken in the same sequence, the figures for `CCN1CCC2c3ccccc3N(c3ccccc3)C2C1C` (stereo not drawn) [Ia] were 3 mg/kg and 4.2 mg/kg.
As for `CCN1CC2C(CC1C)c1ccccc1N2c1ccccc1` (stereo not drawn) [Ij], the ED50 by setting is: under setting [1], less than 5 mg/kg; under setting [2], less than 5 mg/kg.

For the origin of these results see patent US4091102A, “Anti-depressant trans-hexahydropyrido[3,4-b]indoles” (Endo Laboratories, Inc., priority 1976, dated 1978).
